Reference: patent publication US10919935B2, “Antimicrobial peptide derived from myxinidin peptide and uses thereof” (INDUSTRY-ACADEMIC COOPERATION FOUNDATION, CHOSUN UNIVERSITY, priority 2015, dated 2021)
Residues, ends and D or L forms follow the SMILES beside them.

Columns and labels:
[1] = system: Escherichia coli ATCC 25922; type: cell-based
Protocol: (§1) To compare the antimicrobial activity of the peptide produced by the method of Example 1, the inventors of the present invention measured the growth minimum inhibitory concentration (MIC), which is minimum concentration of the peptide showing no dissociation of bacterial cells.
(§2) Specifically, the bacterial strain described in the following Table 2 was purchased and cultured in each medium to a mid-log phase. Then, after dilution to bacterial cell concentration of 2×10^5 cells/100 μl, the cells were inoculated to a microtiter plate (NUNC, USA). Thereafter, myxinidin 1, myxinidin 2, or myxinidin 3 peptides which have been synthesized in Example 1 above was diluted, 1/2 times for each, with BSA (bovine serum albumin) solution in a 96-well plate. After adding the cells to a plate, the cells were cultured for 12 hours at 37° C. By using a microtiter plate reader (Merck Elisa reader, Germany), the absorbance was measured at a wavelength of 600 nm to determine the MIC value of each bacterial strain. As a control group, myxinidin as a mother peptide was subjected to the same processes as above and the MIC value of each bacterial strain was obtained.

[2] = system: Escherichia coli CCARM 1229; type: cell-based
Protocol: as §1, §2

[3] = system: Escherichia coli CCARM 1238; type: cell-based
Protocol: as §1, §2

[4] = system: Listeria monocytogenes KCTC 3710; type: cell-based
Protocol: as §1, §2

[5] = system: Pseudomonas aeruginosa ATCC 27853; type: cell-based
Protocol: as §1, §2

[6] = system: Pseudomonas aeruginosa Isolated strain 3592; type: cell-based
Protocol: as §1, §2

[7] = system: Pseudomonas aeruginosa Isolated strain 5018; type: cell-based
Protocol: as §1, §2

[8] = system: Salmonella typhimurium CCARM 8009; type: cell-based
Protocol: as §1, §2

[9] = system: Salmonella typhimurium CCARM 8013; type: cell-based
Protocol: as §1, §2

[10] = system: Salmonella typhimurium KCTC 1926; type: cell-based
Protocol: as §1, §2

[11] = system: Staphylococcus aureus ATCC 25923; type: cell-based
Protocol: as §1, §2

[12] = system: Staphylococcus aureus CCARM 3114; type: cell-based
Protocol: as §1, §2

[13] = system: Staphylococcus aureus CCARM 3709; type: cell-based
Protocol: as §1, §2

S. aureus 3114 = test: MIC at salt concentration (Example 3); type: cell-based, Staphylococcus aureus
Protocol: (§3) To compare the antimicrobial activity of the peptide produced by the method of Example 1, the inventors of the present invention measured the minimum growth inhibitory concentration (MIC), which is minimum concentration of the peptide showing no dissociation of bacterial cells, at salt concentration.
as §2, with “above” for “following”, “was” for “was purchased and”, “BSA+150 mM sodium chloride (NaCl) solution, physiological saline (PBS) solution, or 10 mM sodium phosphate (SP)” for “BSA (bovine serum albumin)”

S. aureus 3709 = test: MIC at salt concentration (Example 3); type: cell-based, Staphylococcus aureus
Protocol: as §3
as §2, with “above” for “following”, “was” for “was purchased and”, “BSA+150 mM sodium chloride (NaCl) solution, physiological saline (PBS) solution, or 10 mM sodium phosphate (SP)” for “BSA (bovine serum albumin)”

S. aureus = test: MIC at salt concentration (Example 3); type: cell-based, Staphylococcus aureus
Protocol: as §3
as §2, with “above” for “following”, “was” for “was purchased and”, “BSA+150 mM sodium chloride (NaCl) solution, physiological saline (PBS) solution, or 10 mM sodium phosphate (SP)” for “BSA (bovine serum albumin)”

L. monocytogenes = test: MIC at salt concentration (Example 3); type: cell-based, Listeria monocytogenes
Protocol: as §3
as §2, with “above” for “following”, “was” for “was purchased and”, “BSA+150 mM sodium chloride (NaCl) solution, physiological saline (PBS) solution, or 10 mM sodium phosphate (SP)” for “BSA (bovine serum albumin)”

P. aeruginosa 3592 = test: MIC at salt concentration (Example 3); type: cell-based, Pseudomonas aeruginosa
Protocol: as §3
as §2, with “above” for “following”, “was” for “was purchased and”, “BSA+150 mM sodium chloride (NaCl) solution, physiological saline (PBS) solution, or 10 mM sodium phosphate (SP)” for “BSA (bovine serum albumin)”

P. aeruginosa 5018 = test: MIC at salt concentration (Example 3); type: cell-based, Pseudomonas aeruginosa
Protocol: as §3
as §2, with “above” for “following”, “was” for “was purchased and”, “BSA+150 mM sodium chloride (NaCl) solution, physiological saline (PBS) solution, or 10 mM sodium phosphate (SP)” for “BSA (bovine serum albumin)”

P. aeruginosa = test: MIC at salt concentration (Example 3); type: cell-based, Pseudomonas aeruginosa
Protocol: as §3
as §2, with “above” for “following”, “was” for “was purchased and”, “BSA+150 mM sodium chloride (NaCl) solution, physiological saline (PBS) solution, or 10 mM sodium phosphate (SP)” for “BSA (bovine serum albumin)”

in vitro = type: cell-based; conditions: human, NHK cells (normal human keratinocytes)
Protocol: To determine the cytotoxicity of the peptide produced by the method of Example 1 in normal cell line, toxicity was measured by using NHK cells (Normal Human Keratinocyte cells).
Specifically, NHK cells which have been cultured in Epilife medium with 60 μM calcium (Gibco, USA) containing 10% HKGS (Human Keratinocyte Growth Supplement) (Gibco, USA) were aliquoted in a 96-well plate to have 1×10^4 cells per well. After culturing them for 24 hours, the cells were subjected to a treatment with myxinidin, myxinidin 1, myxinidin 2, or myxinidin 3 peptide, each at concentration of 3.125, 6.25, 12.5, or 25.0 μM/well, followed by reaction for 24 hours in a 5% CO2 incubator. After the culture, a reaction solution containing 5 mg/ml MTT (Thiazolyl Blue Tetrazolium Bromide) dissolved in physiological saline (PBS) was added in an amount of 20 μl to each well and allowed to react for 4 hours. After that, the supernatant was removed, and, by dissolving MTT crystals that are formed by adding 200 μl of DMSO, the absorbance at 560 nm was measured to determine the cell survival ability.

[14] = NaCl (BSA+150 mM sodium chloride)

**Q.** Which results are given for `CC[C@H](C)[C@H](NC(=O)[C@H](Cc1c[nH]c2ccccc12)NC(=O)[C@H](CCCNC(=N)N)NC(=O)[C@@H](NC(=O)[C@@H](N)CCCNC(=N)N)[C@@H](C)CC)C(=O)N[C@@H](CC(C)C)C(=O)N[C@@H](CCCNC(=N)N)C(=O)N[C@@H](Cc1ccc(O)cc1)C(=O)N[C@@H](Cc1c[nH]c2ccccc12)C(=O)N[C@@H](CCCNC(=N)N)C(=O)N[C@@H](Cc1c[nH]c2ccccc12)C(=O)N[C@@H](CO)C(N)=O` [Myxinidin 3, RIRWILRYWRWS-NH2] (H-RIRWILRYWRWS-NH2; N-terminus assumed)?
**A.** Minimum growth inhibitory concentration [1]: 0.5 µM; Minimum growth inhibitory concentration [2]: 1 µM; Minimum growth inhibitory concentration [3]: 2 µM; Minimum growth inhibitory concentration [4]: 1 µM; Minimum growth inhibitory concentration [5]: 2 µM; Minimum growth inhibitory concentration [6]: 8 µM; Minimum growth inhibitory concentration [7]: 8 µM; Minimum growth inhibitory concentration [8]: 4 µM; Minimum growth inhibitory concentration [9]: 4 µM; Minimum growth inhibitory concentration [10]: 1 µM; Minimum growth inhibitory concentration [11]: 0.25 µM; Minimum growth inhibitory concentration [12]: 8 µM; Minimum growth inhibitory concentration [13]: 2 µM; Antimicrobial activity (MIC) according to salt concentration (S. aureus 3114; [14]): 16; Antimicrobial activity (MIC) according to salt concentration (S. aureus 3114; PBS): 4; Antimicrobial activity (MIC) according to salt concentration (S. aureus 3114; SP (10 mM sodium phosphate)): 4; Antimicrobial activity (MIC) according to salt concentration (S. aureus 3709; [14]): 4; Antimicrobial activity (MIC) according to salt concentration (S. aureus 3709; PBS): 4; Antimicrobial activity (MIC) according to salt concentration (S. aureus 3709; SP (10 mM sodium phosphate)): 4; Antimicrobial activity (MIC) according to salt concentration (S. aureus; [14]): 0.25; Antimicrobial activity (MIC) according to salt concentration (S. aureus; PBS): 1; Antimicrobial activity (MIC) according to salt concentration (S. aureus; SP (10 mM sodium phosphate)): 1; Antimicrobial activity (MIC) according to salt concentration (L. monocytogenes; [14]): 2; Antimicrobial activity (MIC) according to salt concentration (L. monocytogenes; PBS): 4; Antimicrobial activity (MIC) according to salt concentration (L. monocytogenes; SP (10 mM sodium phosphate)): 4; Antimicrobial activity (MIC) according to salt concentration (P. aeruginosa 3592; [14]): 8; Antimicrobial activity (MIC) according to salt concentration (P. aeruginosa 3592; PBS): 4; Antimicrobial activity (MIC) according to salt concentration (P. aeruginosa 3592; SP (10 mM sodium phosphate)): 4; Antimicrobial activity (MIC) according to salt concentration (P. aeruginosa 5018; [14]): 8; Antimicrobial activity (MIC) according to salt concentration (P. aeruginosa 5018; PBS): 4; Antimicrobial activity (MIC) according to salt concentration (P. aeruginosa 5018; SP (10 mM sodium phosphate)): 2; Antimicrobial activity (MIC) according to salt concentration (P. aeruginosa; [14]): 4; Antimicrobial activity (MIC) according to salt concentration (P. aeruginosa; PBS): 4; Antimicrobial activity (MIC) according to salt concentration (P. aeruginosa; SP (10 mM sodium phosphate)): 4; viability at 24 h, 3.125 µM (in vitro): 100%; viability at 24 h, 6.25 µM (in vitro): 100%; viability at 24 h, 12.5 µM (in vitro): 100%; viability at 24 h, 25 µM (in vitro): 100%
